What was measured:
[1] = biological target: T1, Cholinesterase (Equus caballus, UniProt P81908); experiment: Non-competitive inhibition of equine serum butyrylcholinesterase in presence of varying butyrylthiocholine iodide substrate level preincubated for 20 mins followed by substrate addition measured every 1 min for 30 mins
[2] = biological target: T2, Acetylcholinesterase (Electrophorus electricus, UniProt O42275); experiment: Competitive inhibition of Electrophorus electricus acetylcholinesterase in presence of varying acetylthiocholine iodide substrate level preincubated for 20 mins followed by substrate addition measured every 1 min for 30 mins
[3] = biological target: T1, Cholinesterase; experiment: Competitive inhibition of equine serum butyrylcholinesterase in presence of varying butyrylthiocholine iodide substrate level preincubated for 20 mins followed by substrate addition measured every 1 min for 30 mins
[4] = biological target: T2, Acetylcholinesterase; experiment: Non-competitive inhibition of Electrophorus electricus acetylcholinesterase in presence of varying acetylthiocholine iodide substrate level preincubated for 20 mins followed by substrate addition measured every 1 min for 30 mins

T2 sequence (O42275 whole entry): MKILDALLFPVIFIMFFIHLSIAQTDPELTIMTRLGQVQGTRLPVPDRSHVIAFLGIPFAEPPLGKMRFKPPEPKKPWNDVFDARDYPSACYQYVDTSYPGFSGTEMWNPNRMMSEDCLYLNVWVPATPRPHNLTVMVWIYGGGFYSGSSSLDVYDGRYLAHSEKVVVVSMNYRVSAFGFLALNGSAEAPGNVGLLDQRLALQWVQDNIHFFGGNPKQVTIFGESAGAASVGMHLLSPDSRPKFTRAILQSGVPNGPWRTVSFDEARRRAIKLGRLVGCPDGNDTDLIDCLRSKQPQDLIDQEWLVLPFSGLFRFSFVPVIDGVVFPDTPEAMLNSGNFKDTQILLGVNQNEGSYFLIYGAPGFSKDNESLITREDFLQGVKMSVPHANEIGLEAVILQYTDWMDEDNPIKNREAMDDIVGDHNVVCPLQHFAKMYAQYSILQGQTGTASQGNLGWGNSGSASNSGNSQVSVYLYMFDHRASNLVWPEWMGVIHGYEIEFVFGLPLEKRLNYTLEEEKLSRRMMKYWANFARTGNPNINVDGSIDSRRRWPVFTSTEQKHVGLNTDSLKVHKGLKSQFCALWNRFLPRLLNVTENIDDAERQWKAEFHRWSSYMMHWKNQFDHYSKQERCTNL
T1 sequence (P81908 whole entry): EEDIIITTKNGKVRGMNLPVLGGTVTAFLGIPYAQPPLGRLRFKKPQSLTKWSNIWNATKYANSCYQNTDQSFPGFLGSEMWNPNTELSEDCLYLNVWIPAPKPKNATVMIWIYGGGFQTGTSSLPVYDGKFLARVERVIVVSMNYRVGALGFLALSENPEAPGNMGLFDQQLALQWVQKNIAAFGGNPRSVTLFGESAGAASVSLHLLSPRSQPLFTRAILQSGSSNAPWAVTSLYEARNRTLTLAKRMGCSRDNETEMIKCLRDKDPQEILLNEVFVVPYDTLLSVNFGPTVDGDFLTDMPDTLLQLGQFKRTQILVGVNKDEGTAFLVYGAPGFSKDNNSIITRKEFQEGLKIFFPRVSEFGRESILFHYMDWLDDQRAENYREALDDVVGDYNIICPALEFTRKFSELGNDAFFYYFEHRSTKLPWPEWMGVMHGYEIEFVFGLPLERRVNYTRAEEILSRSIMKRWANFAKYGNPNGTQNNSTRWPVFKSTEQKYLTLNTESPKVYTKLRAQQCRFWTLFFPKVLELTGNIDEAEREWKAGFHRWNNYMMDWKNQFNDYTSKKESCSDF

Row | SMILES | Ki [1] [µM] | Ki [2] [µM] | Ki [3] [µM] | Ki [4] [µM]
1 | N=C(NC(=N)N1CCN(C(=N)NC(=N)Nc2ccccc2I)CC1)Nc1ccccc1I | 11.2 | 1.56 | 1.96 | > 100
2 | N=C(NC(=N)N1CCN(C(=N)NC(=N)Nc2cccc(I)c2)CC1)Nc1cccc(I)c1 | 3.04 | 2.79 | 0.21 | 19.9
3 | COc1ccccc1NC(=N)NC(=N)N1CCN(C(=N)NC(=N)Nc2ccccc2OC)CC1 | 34 | 4.34 | 5.2 | 13.7
4 | N=C(NC(=N)N1CCN(C(=N)NC(=N)Nc2ccccc2Cl)CC1)Nc1ccccc1Cl | 12.7 | 6.11 | 1.85 | 66.7
5 | N=C(NC(=N)N1CCN(C(=N)NC(=N)Nc2cccc(Br)c2)CC1)Nc1cccc(Br)c1 | 10.3 | 6.17 | 0.23 | 25.4
6 | COc1ccc(NC(=N)NC(=N)N2CCN(C(=N)NC(=N)Nc3ccc(OC)cc3)CC2)cc1 | 35.1 | 25.6 | 1.78 | 88.9
7 | N=C(NC(=N)N1CCN(C(=N)NC(=N)Nc2ccccc2F)CC1)Nc1ccccc1F | 25.5 | 14.9 | 6.82 | 58.6
8 | N=C(NC(=N)N1CCN(C(=N)NC(=N)Nc2ccc(Cl)cc2Cl)CC1)Nc1ccc(Cl)cc1Cl | 7.51 | 9.34 | 0.41 | 75.3
9 | N=C(NC(=N)N1CCN(C(=N)NC(=N)Nc2ccc([N+](=O)[O-])cc2)CC1)Nc1ccc([N+](=O)[O-])cc1 | 22.9 | 0.52 | 10.8 | 2.96
10 | CC(C)(C)c1ccc(NC(=N)NC(=N)N2CCN(C(=N)NC(=N)Nc3ccc(C(C)(C)C)cc3)CC2)cc1 | 4.41 | 1.41 | 0.12 | 21.8
11 | N=C(NC(=N)N1CCN(C(=N)NC(=N)Nc2ccc(F)cc2)CC1)Nc1ccc(F)cc1 | 15.2 | 7.77 | 1.18 | 16.2
12 | N=C(NC(=N)N1CCN(C(=N)NC(=N)Nc2ccc(Cl)cc2)CC1)Nc1ccc(Cl)cc1 [PICLOXYDINE] | 9.37 | 22 | 0.62 | 28.3
13 | N=C(NC(=N)N1CCN(C(=N)NC(=N)Nc2ccccc2Br)CC1)Nc1ccccc1Br | 12.3 | 4.19 | 1.25 | 40.5
14 | COc1cccc(NC(=N)NC(=N)N2CCN(C(=N)NC(=N)Nc3cccc(OC)c3)CC2)c1 | 54.8 | 10.4 | 3.02 | 45.2
15 | N=C(NC(=N)N1CCN(C(=N)NC(=N)Nc2cccc(F)c2)CC1)Nc1cccc(F)c1 | 32.9 | 14.9 | 1.7 | 104
16 | N=C(NC(=N)N1CCN(C(=N)NC(=N)Nc2ccc(I)cc2)CC1)Nc1ccc(I)cc1 | 2.74 | 5.08 | 0.31 | 49.1
17 | N=C(NC(=N)N1CCN(C(=N)NC(=N)Nc2ccc(OC(F)(F)F)cc2)CC1)Nc1ccc(OC(F)(F)F)cc1 | > 20 | 19.8 | 3.34 | 62.2
18 | Cc1ccc(NC(=N)NC(=N)N2CCN(C(=N)NC(=N)Nc3ccc(C)cc3)CC2)cc1 | 11.8 | 9.25 | 0.45 | > 100
19 | N=C(NC(=N)N1CCN(C(=N)NC(=N)Nc2cccc(Cl)c2)CC1)Nc1cccc(Cl)c1 | 12.2 | 4.45 | 0.74 | > 30
20 | N=C(NC(=N)N1CCN(C(=N)NC(=N)Nc2ccc(Br)cc2)CC1)Nc1ccc(Br)cc1 | 3.84 | 3.43 | 0.61 | 35.5
21 | N=C(NC(=N)N1CCN(C(=N)NC(=N)Nc2ccccc2)CC1)Nc1ccccc1 | > 40 | 13.5 | 0.95 | 69.2
22 | COc1cc(NC(=N)NC(=N)N2CCN(C(=N)NC(=N)Nc3cc(OC)c(OC)c(OC)c3)CC2)cc(OC)c1OC | – | 7.74 | 9.03 | 41.2

Source: ChEMBL document CHEMBL3877266, “Repurposing N,N'-bis-(arylamidino)-1,4-piperazinedicarboxamidines: An unexpected class of potent inhibitors of cholinesterases” (Eur J Med Chem, 2017)
